Results: ChEMBL document CHEMBL1130961, “The development of novel and selective p56lck tyrosine kinase inhibitors” (Bioorg Med Chem Lett, 1998)

What was measured:
[1] = target: Tyrosine-protein kinase Lck (Homo sapiens, UniProt P06239); test: Inhibition of p56 Lck tyrosine kinase
[2] = target: Proto-oncogene tyrosine-protein kinase Src (Homo sapiens, UniProt P12931); test: Inhibition of Src tyrosine kinase
[3] = target: cAMP-dependent protein kinase (PKA) (Homo sapiens, UniProt P22694+P17612+P22612); test: Inhibition of Protein Kinase A (PKA); format: protein assay

Chain of Proto-oncogene tyrosine-protein kinase Src (P12931 2-536 limits assumed): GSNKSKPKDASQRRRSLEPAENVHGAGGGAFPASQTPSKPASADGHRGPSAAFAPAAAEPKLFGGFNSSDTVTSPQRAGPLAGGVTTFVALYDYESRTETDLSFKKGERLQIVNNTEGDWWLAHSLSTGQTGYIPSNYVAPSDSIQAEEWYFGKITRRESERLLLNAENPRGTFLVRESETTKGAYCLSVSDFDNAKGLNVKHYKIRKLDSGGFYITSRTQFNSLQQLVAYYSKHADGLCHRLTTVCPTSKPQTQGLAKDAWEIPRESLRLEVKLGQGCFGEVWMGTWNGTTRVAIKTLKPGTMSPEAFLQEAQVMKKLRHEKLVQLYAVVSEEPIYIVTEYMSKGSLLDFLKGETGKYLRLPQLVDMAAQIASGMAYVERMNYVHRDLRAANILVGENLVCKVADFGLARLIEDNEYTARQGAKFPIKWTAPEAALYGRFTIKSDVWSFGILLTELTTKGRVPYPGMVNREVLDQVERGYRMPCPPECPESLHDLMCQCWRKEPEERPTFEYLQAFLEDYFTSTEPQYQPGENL
Chain of Tyrosine-protein kinase Lck (P06239 whole entry): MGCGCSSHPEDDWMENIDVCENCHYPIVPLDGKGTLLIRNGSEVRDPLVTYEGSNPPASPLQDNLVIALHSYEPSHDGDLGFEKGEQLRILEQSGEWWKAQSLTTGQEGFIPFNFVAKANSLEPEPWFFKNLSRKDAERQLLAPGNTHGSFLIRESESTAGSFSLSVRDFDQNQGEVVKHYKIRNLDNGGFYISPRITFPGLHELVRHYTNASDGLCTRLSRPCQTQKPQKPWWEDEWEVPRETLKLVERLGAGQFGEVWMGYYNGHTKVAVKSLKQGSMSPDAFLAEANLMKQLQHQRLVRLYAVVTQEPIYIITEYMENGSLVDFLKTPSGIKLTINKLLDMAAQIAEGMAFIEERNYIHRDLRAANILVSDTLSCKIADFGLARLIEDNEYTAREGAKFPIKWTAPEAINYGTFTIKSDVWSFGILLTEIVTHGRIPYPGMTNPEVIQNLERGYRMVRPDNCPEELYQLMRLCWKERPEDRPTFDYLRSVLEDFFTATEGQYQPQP

Compound	IC50 [1] [nM]	IC50 [2] [nM]	IC50 [3] [nM]
COc1cc(C=C2C(=O)c3cc(Cl)c(Cl)cc3C2=O)ccc1O	5000	–	–
Nc1ccc2c(c1)C(=O)/C(=C/c1cc(Cl)c(O)c(Cl)c1)C2=O	102	3500	5000
Nc1cccc2c1C(=O)/C(=C\c1cc(Br)c(O)c(Br)c1)C2=O	470	–	–
O=C1/C(=C/c2cc(Cl)c(O)c(Cl)c2)C(=O)c2c1cccc2[N+](=O)[O-]	1400	–	–
COc1cc2c(cc1OC)C(=O)C(=Cc1cc(Br)c(O)c(Br)c1)C2=O	110	–	–
COc1cc(/C=C2\C(=O)c3ccc(N)cc3C2=O)cc(OC)c1O	1700	–	–
O=C1C(=Cc2ccc(O)c(O)c2)C(=O)c2ccccc21	5000	–	–
Nc1ccc2c(c1)C(=O)/C(=C/c1cc(Br)c(O)c(Br)c1)C2=O	32	460	8000
Nc1ccc2c(c1)C(=O)/C(=C/c1cc(Br)c(O)c(Br)c1)C2	710	–	–
COc1cc2c(cc1OC)C(=O)C(=Cc1cc(Cl)c(O)c(Cl)c1)C2=O	310	–	–
COc1ccc2c(c1)C(=O)/C(=C/c1ccc(O)c(O)c1)C2=O	1500	–	–
COc1ccc2c(c1)C(=O)/C(=C/c1cc(Br)c(O)c(Br)c1)C2=O	144	> 50000	10000
O=C1C(=Cc2cc(Br)c(O)c(Br)c2)C(=O)c2ccccc21	740	–	–
O=C1/C(=C/c2ccc(O)c(O)c2)C(=O)c2c1cccc2[N+](=O)[O-]	5000	–	–
Nc1ccc2c(c1)C/C(=C\c1cc(Br)c(O)c(Br)c1)C2=O	5000	–	–
Nc1ccc2c(c1)C(=O)/C(=C/c1ccc(O)c(O)c1)C2=O	600	–	–
COc1ccc2c(c1)C(=O)/C(=C/c1cc(Br)c(O)c(OC)c1)C2=O	880	–	–
O=C1/C(=C\c2cc(Br)c(O)c(Br)c2)C(=O)c2cc([N+](=O)[O-])ccc21	> 5000	–	–
O=C1/C(=C\c2cc(Br)c(O)c(Br)c2)C(=O)c2cc(Br)ccc21	1000	–	–
COc1cc(C=C2C(=O)c3cc(Cl)c(Cl)cc3C2=O)cc(Br)c1O	1700	–	–
O=C1/C(=C/c2ccc(O)c(O)c2)C(=O)c2cc([N+](=O)[O-])ccc21	> 5000	–	–
